Assay results published in patent US12275731B2, “Azaindole inhibitors of wild-type and mutant forms of LRRK2” (DANA-FARBER CANCER INSTITUTE, INC., priority 2018, dated 2025).

How the values were obtained:
Assay in all cases: KinomeScan profiling
Type in all cases: binding
WEE2 = WEE2 (Homo sapiens, UniProt P0C1S8); conditions: WEE2, 1 μM; read-out: % control
Summary of the method: (§1)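 Test agents were profiled at a single concentration of 1 μM (DMSO vehicle) on a near-complete set of 468 kinases. Signal is reported relative to vehicle (100%) and a fully displacing control (0%).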

BTK = BTK (Homo sapiens, UniProt Q06187); conditions: read-out: % control
Summary of the method: as §1

CAMK1 = CAMK1 (Homo sapiens, UniProt Q14012); conditions: CAMK1, 1 μM; read-out: % control
Summary of the method: as §1

CTK = molecular target: T1, CTK (Homo sapiens, UniProt P42679); conditions: read-out: % control
T1 sequence (P42679 1-507): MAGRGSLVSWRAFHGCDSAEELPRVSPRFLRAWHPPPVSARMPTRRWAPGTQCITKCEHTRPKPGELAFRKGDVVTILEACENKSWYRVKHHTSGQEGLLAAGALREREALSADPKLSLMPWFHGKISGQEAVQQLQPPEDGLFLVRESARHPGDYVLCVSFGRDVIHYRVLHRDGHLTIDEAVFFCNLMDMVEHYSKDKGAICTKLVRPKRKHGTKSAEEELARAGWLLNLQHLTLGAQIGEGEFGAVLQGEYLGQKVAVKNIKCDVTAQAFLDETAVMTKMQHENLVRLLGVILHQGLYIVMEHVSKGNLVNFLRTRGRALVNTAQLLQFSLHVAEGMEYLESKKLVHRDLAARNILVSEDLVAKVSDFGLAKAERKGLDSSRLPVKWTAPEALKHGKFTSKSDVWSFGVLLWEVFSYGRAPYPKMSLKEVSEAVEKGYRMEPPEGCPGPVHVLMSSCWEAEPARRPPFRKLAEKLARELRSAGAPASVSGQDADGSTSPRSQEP
Summary of the method: as §1

VPS34 = VPS34 (Homo sapiens, UniProt Q8NEB9); conditions: VPS34, 1 μM; read-out: % control
Summary of the method: as §1

[1] = molecular target: EGFR(L747-E749del, A750P) (Homo sapiens, UniProt P00533, A750P/DEL747-749); conditions: read-out: % control
Summary of the method: as §1

TGFBR1 = molecular target: T2, TGFBR1 (Homo sapiens, UniProt P36897); conditions: TGFBR1, 1 μM; read-out: % control
T2 sequence (P36897 34-503): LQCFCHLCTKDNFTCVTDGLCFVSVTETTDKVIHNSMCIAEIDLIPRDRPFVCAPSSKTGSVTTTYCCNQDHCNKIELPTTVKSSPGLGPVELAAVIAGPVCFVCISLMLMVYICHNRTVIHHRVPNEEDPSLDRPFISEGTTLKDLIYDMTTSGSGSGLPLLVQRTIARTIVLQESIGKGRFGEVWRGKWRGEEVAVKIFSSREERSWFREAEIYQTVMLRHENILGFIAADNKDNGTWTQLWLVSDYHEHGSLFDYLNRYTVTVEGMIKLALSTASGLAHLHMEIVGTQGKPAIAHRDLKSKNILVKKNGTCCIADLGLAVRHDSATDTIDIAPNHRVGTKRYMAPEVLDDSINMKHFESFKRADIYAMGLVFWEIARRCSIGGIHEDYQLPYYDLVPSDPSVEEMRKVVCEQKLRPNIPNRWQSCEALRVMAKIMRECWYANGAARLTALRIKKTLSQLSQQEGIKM
Summary of the method: as §1

ERK8 = molecular target: T3, ERK8 (Homo sapiens, UniProt Q8TD08); conditions: ERK8, 1 μM; read-out: % control
T3 sequence (Q8TD08 1-544): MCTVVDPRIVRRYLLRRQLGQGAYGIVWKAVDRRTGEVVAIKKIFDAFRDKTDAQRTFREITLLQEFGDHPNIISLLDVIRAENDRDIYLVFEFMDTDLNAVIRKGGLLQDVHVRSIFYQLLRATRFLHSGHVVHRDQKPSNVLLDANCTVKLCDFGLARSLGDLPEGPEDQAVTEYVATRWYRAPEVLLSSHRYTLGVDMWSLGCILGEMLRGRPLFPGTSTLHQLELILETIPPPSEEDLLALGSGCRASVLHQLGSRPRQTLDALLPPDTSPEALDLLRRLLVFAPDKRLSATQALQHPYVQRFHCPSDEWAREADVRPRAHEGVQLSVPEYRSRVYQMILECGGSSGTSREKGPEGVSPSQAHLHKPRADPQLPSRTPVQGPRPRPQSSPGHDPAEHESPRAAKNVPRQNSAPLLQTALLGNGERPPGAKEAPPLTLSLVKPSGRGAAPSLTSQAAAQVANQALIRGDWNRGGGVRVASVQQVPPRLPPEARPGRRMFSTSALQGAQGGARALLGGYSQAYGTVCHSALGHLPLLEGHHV
Summary of the method: as §1

[2] = molecular target: T4, ABL1(H396P)-nonphosphorylated (Homo sapiens, UniProt P00519, H396P); conditions: read-out: % control
T4 construct: purchased KinomeScan®
Summary of the method: as §1

EGFR(L747-T751del, Sins) = EGFR(L747-T751del, Sins) (Homo sapiens, UniProt P00533, DEL747-750/T751S); conditions: read-out: % control
Summary of the method: as §1

CAMK1, sequence (Q14012 whole entry): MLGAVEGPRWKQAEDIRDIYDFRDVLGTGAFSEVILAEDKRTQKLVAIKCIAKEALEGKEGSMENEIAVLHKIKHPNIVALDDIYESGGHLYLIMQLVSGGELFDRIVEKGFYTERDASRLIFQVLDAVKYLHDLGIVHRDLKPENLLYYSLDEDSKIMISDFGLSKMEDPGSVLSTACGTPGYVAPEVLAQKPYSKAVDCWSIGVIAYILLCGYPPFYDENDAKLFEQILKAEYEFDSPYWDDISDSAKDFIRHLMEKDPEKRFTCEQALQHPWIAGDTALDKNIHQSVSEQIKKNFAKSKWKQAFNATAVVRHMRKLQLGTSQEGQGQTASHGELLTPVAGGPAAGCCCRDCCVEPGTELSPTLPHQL
WEE2, sequence (P0C1S8 whole entry): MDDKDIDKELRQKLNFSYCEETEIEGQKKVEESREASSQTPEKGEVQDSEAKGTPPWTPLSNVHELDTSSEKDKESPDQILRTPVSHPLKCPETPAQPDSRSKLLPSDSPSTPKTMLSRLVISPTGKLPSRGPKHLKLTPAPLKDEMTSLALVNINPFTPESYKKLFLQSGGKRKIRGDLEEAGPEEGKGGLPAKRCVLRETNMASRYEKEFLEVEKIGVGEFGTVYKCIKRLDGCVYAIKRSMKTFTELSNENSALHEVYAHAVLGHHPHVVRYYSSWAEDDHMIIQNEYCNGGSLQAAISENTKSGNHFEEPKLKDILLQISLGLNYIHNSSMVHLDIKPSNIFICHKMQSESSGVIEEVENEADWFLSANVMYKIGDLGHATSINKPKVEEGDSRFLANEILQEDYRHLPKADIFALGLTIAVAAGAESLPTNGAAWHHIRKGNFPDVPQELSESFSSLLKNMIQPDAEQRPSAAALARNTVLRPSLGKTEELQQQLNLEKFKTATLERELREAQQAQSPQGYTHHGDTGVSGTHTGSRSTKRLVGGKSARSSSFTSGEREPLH
EGFR(L747-T751del, Sins), sequence (P00533 with tags, fused parts or gaps DEL747-750/T751S limits assumed): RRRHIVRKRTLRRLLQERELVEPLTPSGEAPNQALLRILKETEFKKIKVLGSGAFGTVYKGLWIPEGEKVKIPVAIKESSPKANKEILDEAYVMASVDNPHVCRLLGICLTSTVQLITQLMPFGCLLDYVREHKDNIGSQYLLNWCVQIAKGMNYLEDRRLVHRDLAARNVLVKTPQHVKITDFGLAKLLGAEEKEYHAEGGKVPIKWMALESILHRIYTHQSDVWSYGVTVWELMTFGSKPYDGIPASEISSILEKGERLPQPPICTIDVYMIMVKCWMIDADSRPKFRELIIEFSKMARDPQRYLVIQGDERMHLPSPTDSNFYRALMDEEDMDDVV
VPS34, sequence (Q8NEB9 whole entry): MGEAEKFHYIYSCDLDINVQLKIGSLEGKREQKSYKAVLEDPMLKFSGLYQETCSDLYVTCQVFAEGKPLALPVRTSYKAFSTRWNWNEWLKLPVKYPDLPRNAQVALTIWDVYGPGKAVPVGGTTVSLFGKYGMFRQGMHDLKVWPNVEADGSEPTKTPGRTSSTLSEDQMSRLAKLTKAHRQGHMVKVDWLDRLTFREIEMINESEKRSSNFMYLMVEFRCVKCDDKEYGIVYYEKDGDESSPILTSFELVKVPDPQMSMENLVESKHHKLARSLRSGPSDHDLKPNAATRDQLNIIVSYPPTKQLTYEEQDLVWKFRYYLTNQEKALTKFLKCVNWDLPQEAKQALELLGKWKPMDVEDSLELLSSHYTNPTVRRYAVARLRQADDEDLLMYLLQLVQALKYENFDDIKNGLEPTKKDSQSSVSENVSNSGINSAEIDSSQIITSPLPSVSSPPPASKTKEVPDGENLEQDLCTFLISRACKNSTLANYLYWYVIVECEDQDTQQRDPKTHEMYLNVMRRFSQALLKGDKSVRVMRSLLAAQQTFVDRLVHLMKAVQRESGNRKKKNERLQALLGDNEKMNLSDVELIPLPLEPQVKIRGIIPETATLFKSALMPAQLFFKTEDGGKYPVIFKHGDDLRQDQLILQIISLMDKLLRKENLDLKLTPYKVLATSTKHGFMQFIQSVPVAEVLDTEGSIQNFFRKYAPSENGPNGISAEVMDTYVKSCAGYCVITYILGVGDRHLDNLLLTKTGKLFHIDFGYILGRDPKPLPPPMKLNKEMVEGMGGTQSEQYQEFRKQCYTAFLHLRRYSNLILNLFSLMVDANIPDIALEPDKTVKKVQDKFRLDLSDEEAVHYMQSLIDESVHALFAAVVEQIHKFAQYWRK
EGFR(L747-E749del, A750P), sequence (P00533 with tags, fused parts or gaps DEL747-749/A750P): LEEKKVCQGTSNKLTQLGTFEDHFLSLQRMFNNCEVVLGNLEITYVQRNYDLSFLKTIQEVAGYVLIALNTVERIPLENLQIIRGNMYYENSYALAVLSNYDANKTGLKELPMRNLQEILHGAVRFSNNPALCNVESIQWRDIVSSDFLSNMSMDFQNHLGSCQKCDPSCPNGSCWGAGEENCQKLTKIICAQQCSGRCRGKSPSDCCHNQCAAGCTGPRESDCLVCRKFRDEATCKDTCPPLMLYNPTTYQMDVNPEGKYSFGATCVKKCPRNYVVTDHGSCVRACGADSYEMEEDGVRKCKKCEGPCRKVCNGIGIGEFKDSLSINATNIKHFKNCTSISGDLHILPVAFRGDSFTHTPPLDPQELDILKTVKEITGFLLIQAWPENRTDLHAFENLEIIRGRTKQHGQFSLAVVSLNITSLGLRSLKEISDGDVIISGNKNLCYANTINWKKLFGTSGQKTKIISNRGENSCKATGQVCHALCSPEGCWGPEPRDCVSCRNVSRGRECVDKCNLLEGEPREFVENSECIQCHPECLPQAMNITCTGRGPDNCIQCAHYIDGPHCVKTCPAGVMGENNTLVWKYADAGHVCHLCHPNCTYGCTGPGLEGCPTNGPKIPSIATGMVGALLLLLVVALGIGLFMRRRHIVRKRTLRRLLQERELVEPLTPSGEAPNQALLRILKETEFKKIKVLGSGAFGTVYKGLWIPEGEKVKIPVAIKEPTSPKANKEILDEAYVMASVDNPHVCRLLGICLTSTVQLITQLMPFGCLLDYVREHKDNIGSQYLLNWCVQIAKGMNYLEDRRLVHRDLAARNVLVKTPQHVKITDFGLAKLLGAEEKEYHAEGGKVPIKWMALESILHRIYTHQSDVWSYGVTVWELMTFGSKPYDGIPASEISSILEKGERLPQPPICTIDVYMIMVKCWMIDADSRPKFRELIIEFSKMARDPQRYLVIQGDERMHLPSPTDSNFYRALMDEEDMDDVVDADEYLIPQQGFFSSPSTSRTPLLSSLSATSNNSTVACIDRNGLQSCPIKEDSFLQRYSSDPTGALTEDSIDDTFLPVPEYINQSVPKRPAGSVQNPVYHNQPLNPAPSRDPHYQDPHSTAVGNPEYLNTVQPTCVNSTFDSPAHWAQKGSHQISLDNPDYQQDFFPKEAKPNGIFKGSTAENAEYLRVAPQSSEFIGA
BTK, sequence (Q06187 whole entry): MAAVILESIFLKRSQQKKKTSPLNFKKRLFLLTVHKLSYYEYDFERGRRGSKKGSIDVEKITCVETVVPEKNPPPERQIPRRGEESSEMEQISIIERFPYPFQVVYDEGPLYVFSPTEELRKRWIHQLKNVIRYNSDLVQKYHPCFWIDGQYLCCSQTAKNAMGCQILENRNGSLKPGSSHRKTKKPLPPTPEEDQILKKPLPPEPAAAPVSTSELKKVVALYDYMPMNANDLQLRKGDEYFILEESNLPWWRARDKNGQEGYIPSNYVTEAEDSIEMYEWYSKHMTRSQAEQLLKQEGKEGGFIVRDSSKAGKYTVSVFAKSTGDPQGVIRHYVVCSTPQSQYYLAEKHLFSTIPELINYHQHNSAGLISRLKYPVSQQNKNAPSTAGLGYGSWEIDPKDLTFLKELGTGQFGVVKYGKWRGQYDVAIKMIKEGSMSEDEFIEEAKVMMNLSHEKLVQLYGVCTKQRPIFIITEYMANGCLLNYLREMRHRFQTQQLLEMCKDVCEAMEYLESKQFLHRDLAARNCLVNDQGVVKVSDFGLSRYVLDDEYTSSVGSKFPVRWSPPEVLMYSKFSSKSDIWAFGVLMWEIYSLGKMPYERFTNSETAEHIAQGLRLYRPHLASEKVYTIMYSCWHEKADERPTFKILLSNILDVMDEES

SMILES | remaining binding at 1 µM (WEE2) | remaining binding at 1 µM (BTK) | remaining binding at 1 µM (CAMK1) | remaining binding at 1 µM (CTK) | remaining binding at 1 µM (VPS34) | remaining binding at 1 µM [1] | remaining binding at 1 µM (TGFBR1) | remaining binding at 1 µM (ERK8) | remaining binding at 1 µM [2] | remaining binding at 1 µM (EGFR(L747-T751del, Sins))
CNc1c(-c2ccc(C(=O)N3CCC(N4CCOCC4)CC3)cc2)cnc2[nH]cc(Cl)c12 [Compound 96, (4-(3-chloro-4-(methylamino)-1H-pyrrolo[2,3-b]pyridin-5-yl)phenyl)(4-morpholinopiperidin-1-yl)methanone] | 100% | 78% | 87% | 100% | 51% | 100% | 56% | 100% | 76% | 76%
O=C(c1ccc(-c2cnc3[nH]cc(Cl)c3c2NC2CCCC2)cc1)N1CCC(N2CCOCC2)CC1 [Compound 101, (4-(3-chloro-4-(cyclopentylamino)-1H-pyrrolo[2,3-b]pyridin-5-yl)phenyl)(4-morpholinopiperidin-1-yl)methanone] | 94% | 100% | 98% | 95% | 100% | 88% | 100% | 91% | 100% | 100%
CNc1c(-c2cnn([C@H]3CCN(C(C)=O)C[C@@H]3F)c2)cnc2[nH]cc(Cl)c12 [Compound 77, 1-((3S,4S)-4-(4-(3-chloro-4-(methylamino)-1H-pyrrolo[2,3-b]pyridin-5-yl)-1H-pyrazol-1-yl)-3-fluoropiperidin-1-yl)ethan-1-one] | 95% | 68% | 84% | 97% | 35% | 100% | 60% | 92% | 36% | 88%
